Series [1] deals with low-density granulocytes (LDG) and normal-density granulocytes (NDG). Description: NET formation (NETosis) in granulocytes. In kind it is cell-based, human. As to the method: Normal-density granulocytes (NDGs) were isolated from heparinized venous blood using a Ficoll-Paque gradient (GE Healthcare) with dextran (Sigma-Aldrich) sedimentation, followed by red blood cell lysis using hypotonic NaCl. From the PBMC layer, low-density granulocytes (LDGs) were isolated using a negative selection method. The cells were resuspended in RPMI 1640 medium for further characterization. NETs were induced in NDGs by incubating cells with calcium ionophore A23187 (25 μM) (Thermo Fisher) in RPMI 1640 medium for 2 h, and NETs were quantified using SYTOX fluorescent dye at 485/520 nm to quantify extracellular DNA. The fluorescence of PicoGreen (Life Technologies) at t=0 min was measured at 485/520 nm […] to quantify the total DNA. The fluorescence was quantified using a microplate reader (Synergy HTX; BIOTEK). NETs were also quantified by fluorescence microscopy. Briefly, the cells were attached to coverslip chambers, stimulated for 90 min at 37° C. with calcium ionophore, fixed with 4% paraformaldehyde overnight at 4° C., and permeabilized with 0.2% Triton X-100 for 10 min, followed by 0.5% gelatin for 20 min. The cells were stained with antibodies against human neutrophil elastase (ab21595, Abcam) for 2 h at room temperature, washed in PBS, and stained with Hoechst 33342 (Life Technologies) and Alexa Fluor 488 secondary antibody (A31570, Life Technologies) for 2 h at room temperature. After mounting, the cells were visualized with a LSM780 confocal microscope.

Series [2] has as its system MRL/lpr mice. Description: MRL/lpr lupus-prone mouse model. In kind it is in vivo. As to the method:
All experiments were approved by the ACUC (Animal Care and Use Committee) of the NIH/NHLBI. Lupus-prone female MRL/MpJ-Fas^lpr/J mice (stock #000485, n=10 in each group), used as a model to determine the etiology of systemic lupus erythematosus (SLE), were purchased from The Jackson Laboratory. VIBIT4 was freshly dissolved in DMSO and diluted in water (final pH 5.0). The mice were treated with a daily dose of VBIT-4 (20 mg/kg) or vehicle in drinking water for 5 weeks, beginning at 11 weeks of age until euthanasia at 16 weeks of age. Blood and urine samples were collected when the mice were 16 weeks of age. The body weight of the mice was measured before and after VBIT-4 administration (at 11 and 16 weeks of age).
Proteinuria in fresh urine was measured using creatinine and albumin ELISA kits (Exocell), and mouse albumin was used to determine the proteinuria:creatinine ratio following the manufacturer's instructions.
Circulating mtDNA was isolated from 500 μl of serum using QIAamp Circulating Nucleic Acid Kit (Qiagen) according to the manufacturer's protocol. Briefly, serum samples were incubated with proteinase K and carrier RNA at 55° C. for 30 min in lysis buffer, and the circulating nucleic acids were bound to the silica membrane by applying vacuum pressure. After washing, the eluted samples were used for real-time RT-PCR. Primers of the mtDNA D-loop3 regions were used to quantify serum mtDNA. Anti-dsDNA antibodies were detected at 1:200 serum dilution using an ELISA kit (Alpha Diagnostic).
Kidneys were harvested after perfusion with PBS from MRL/lpr mice. Frozen kidney sections were fixed in cold acetone for 20 min, washed, and blocked for 18 h at 4° C. with 4% BSA in PBS. To detect glomerular deposits, the sections were stained with FITC-conjugated anti-mouse C3 antibody (GC3-90E-Z, Immunology Consultants Laboratory) and Alexa Fluor 594-conjugated anti-Mouse IgG antibody (A-11020, Invitrogen) with Hoechst staining at 1:100 dilution (Life Technologies) for 1 h at room temperature. After washing with PBS, the tissues were mounted, and the slides were observed using a LSM880 laser confocal microscope. The fluorescence intensity score was determined after analyzing random images for each animal in a blinded manner.

For series [3], the system named is PTP. Description: Mitochondrial swelling assay (PTP opening). Conditions: purified mitochondria, Ca2+-induced swelling. As to the method:
(§1) The PTP opening was analyzed following mitochondria swelling. Briefly, freshly isolated mitochondria (0.5 mg/ml) were incubated for 2 min at 24° C. with the indicated concentrations of VBIT-4 for Ca^2+-induced mitochondrial swelling assay. Swelling was initiated by the addition of Ca^2+ (0.1 mM) to the sample cuvette. Absorbance changes at 520 nm were monitored every 16 s for 15 min. Cyclosporine A 10 μM) was used as a positive control. […] Ca^2+ accumulation by freshly isolated rat liver mitochondria (0.5 mg/ml) was assayed with the indicated concentrations of VBIT-4 in the presence of […] CaCl2) (containing [^45Ca^2+]), 220 mM mannitol, 70 mM sucrose, 5 mM succinate, 0.15 mM Pi and 15 mM Tris/HCl, pH 7.2. Ca^2+ uptake was terminated by rapid Millipore filtration (0.45 μm).

Series [4] has as its system EndoG−/− MEFs. Description: ISG expression in EndoG−/− MEFs (real-time PCR / western blot). Format: cell-based, mouse. The settings on record: VBIT-4 (10 μM), real-time PCR. Background: Quantitative PCR measures a nucleic acid by following its amplification.
Description: All MEFs were grown in complete Dulbecco's modified Eagle's medium (DMEM, Corning) supplemented with 10% fetal bovine serum (FBS, Sigma-Aldrich) and 1% penicillin and streptomycin (antibiotics, Gibco) at 37° C. with 5% CO2.
Total RNA was extracted using RNeasy Plus Mini Kit (Qiagen) according to the manufacturer's instructions. The first-strand cDNA was synthesized from 2 μg purified mRNA using Accupower RT PreMix (BioNeer). The reaction mixtures were incubated at 42° C. for 60 min and 94° C. for 5 min. Real-time RT-PCR was performed using the LightCycler 96 system (Roche Life Science) with SYBR Green master mix (Roche). The primers used were as follow (5′-3′): EndoG forward (SEQ ID NO:36), and reverse (SEQ ID NO:37); Cxcl10 forward (SEQ ID NO:38), and reverse (SEQ ID NO:39); GAPDH forward (SEQ ID NO:40), and reverse (SEQ ID NO:41); Ifi44 forward (SEQ ID NO:42), and reverse (SEQ ID NO:43); Ifit1 forward (SEQ ID NO:44), and reverse (SEQ ID NO:45); Ifit3 forward (SEQ ID NO:46), and reverse (SEQ ID NO:47); IFNα4 forward (SEQ ID NO:48), and reverse (SEQ ID NO:49); IFNβ forward (SEQ ID NO:50), and reverse (SEQ ID NO:51); Iigp1 forward (SEQ ID NO:52), and reverse (SEQ ID NO:53); ISG15 forward (SEQ ID NO:54), and reverse (SEQ ID NO:55); Oasl2 forward (SEQ ID NO:56), and reverse (SEQ ID NO:57); Rsad2 forward (SEQ ID NO:58), and reverse (SEQ ID NO:59); USP18 forward (SEQ ID NO:60), and reverse (SEQ ID NO:61); VDAC1 forward (SEQ ID NO:62), and reverse (SEQ ID NO:63). GAPDH was used as an internal standard of mRNA expression, and the ratio of the target gene expression to GAPDH expression was calculated using LightCycler 96 Instrument software (Roche). The quality of real-time RT-PCR results was evaluated based on the melting temperature (Tm) of a DNA fragment and melting curve analysis.
Series [5] deals with human PBMCs. Description: A23187-induced mitochondrial ROS (MitoSOX). Format: cell-based. Conditions: VBIT-4 (5 μM), A23187 (25 μM), 1 h. As to the method:
Cellular cGAMP levels were measured by LC/MS (Agilent Technologies) using 5% perchloric acid extracts of WT and EndoG^−/− MEFs. Intracellular ROS production in MEFs was measured using the oxidative stress indicator CM-H2DCFDA (Invitrogen) with flow cytometry (FACS). Mitochondrial ROS in MEFs was evaluated using the mitochondrial superoxide indicator MitoSOX (Invitrogen) with a confocal microscope (LSM880, Zeiss, and the fluorescence intensity was measured using Zen software (Zeiss). To quantify mitochondrial ROS in human PBMCs, the cells were obtained from heparinized blood using a Ficoll-Paque gradient. The cells were washed with PBS, resuspended in RPMI 1640 medium, and transferred to 96-well plates. Subsequently, the cells were stimulated with calcium ionophore A23187 (25 μM), VBIT-4 (5 μM), and MitoSOX (2 μM) (Life Technologies). After 1 h at 37° C., the fluorescence was measured at 510/595 nm using a microplate reader (Synergy HTX; BIOTEK). Cells without dye were used as the blank control.

Series [6] has as its target T1, VDAC1 (Rattus norvegicus, UniProt Q9Z2L0).
T1 construct: from tissue; host or cells: rat liver mitochondria (inferred)
Description: Micro-scale thermophoresis (MST) interaction with VDAC1. Format: binding. The settings on record: without prior exposure to high voltage.

For series [7], the system named is rat liver mitochondria. Description: Ca2+ accumulation by isolated mitochondria. The settings on record: purified mitochondria. As to the method: as §1
Where [8] appears, read: VBIT-4 20 mg/kg daily in drinking water, 5 weeks.

Here are results for one compound from patent US20220023381A1, “VDAC INHIBITORS FOR TREATING AUTOIMMUNE DISEASES” (NATIONAL INSTITUTE FOR BIOTECHNOLOGY IN THE NEGEV LTD., priority 2018, published 2022).

T1 sequence (Q9Z2L0 whole entry): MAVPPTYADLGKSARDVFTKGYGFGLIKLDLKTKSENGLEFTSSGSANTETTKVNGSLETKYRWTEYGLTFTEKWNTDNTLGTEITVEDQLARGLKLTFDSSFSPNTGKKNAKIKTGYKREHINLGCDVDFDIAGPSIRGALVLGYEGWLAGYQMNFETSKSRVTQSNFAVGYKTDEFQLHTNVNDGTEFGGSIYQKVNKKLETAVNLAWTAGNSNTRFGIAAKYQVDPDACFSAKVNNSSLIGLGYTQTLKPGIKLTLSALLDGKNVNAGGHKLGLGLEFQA

As for `O=C(CC(CO)N1CCN(c2ccc(OC(F)(F)F)cc2)CC1)Nc1ccc(Cl)cc1` (stereo not drawn) [VBIT-4, N-(4-chlorophenyl)-4-hydroxy-3-(4-(4-(trifluoromethoxy)phenyl)-piperazin-1-yl)butanamide], the NETosis result in series [1] (LDG from lupus patients, spontaneous NET formation, VBIT-4 (5 μM), microscopy) is “strongly inhibited”; in series [1] (NDG from healthy controls, SYTOX-PicoGreen plate assay), “strongly inhibited”; in series [1] (NDG from lupus patients, A23187-stimulated, microscopy), “strongly inhibited”; in series [1] (NDG from lupus patients, SYTOX-PicoGreen plate assay) it was “strongly inhibited”. Moreover, the “weight of spleen and lymph node” value in series [2] (20 mg/kg daily, 5 weeks, at 16 weeks of age) is “reduced”. In addition, the “renal immune complex deposition” value in series [2] (C3 and IgG in kidney glomeruli, compared with vehicle-treated mice) is “significantly diminished”. Besides, the “alopecia of face and dorsal” value in series [2] (setting [8]) is “suppressed”. Also, in series [2] (setting [8]), the “development of skin lesions” value was “blocked”. For the same compound, the mortality result in series [2] (setting [8]) is “did not cause any mortality”. Moreover, the “thickening of the epidermis that accompanies leukocyte infiltration” value in series [2] (setting [8]) is “blocked”. The “change in body weight” value in series [2] (VBIT-4 20 mg/kg daily in drinking water, 5 weeks, 11 and 16 weeks of age) is reported as “did not cause any mortality or change in body weight”. In addition, in series [2] (albumin:creatinine ratio, compared with vehicle-treated mice), the proteinuria result is “significantly diminished”. The “serum anti-dsDNA” value in series [2] (compared with vehicle-treated mice) was “significantly diminished”. The “cell-free mtDNA” value in series [2] (serum, compared with vehicle-treated mice) is listed as “significantly diminished”. Also, the ISG induction result in series [2] (spleen, real-time PCR, compared with vehicle-treated mice) is on record as “significantly diminished”. Also, the PTP opening result in series [3] is recorded as “did not prevent”. Also, the ISG expression result in series [4] was “decreased”. Besides, the “A23187-induced mitochondrial ROS” value in series [5] (healthy controls) and in series [5] (lupus patients) was “decreased” in each case. Also, in series [6], the “interaction with VDAC1 measured by MST” value is recorded as “did show interaction”. Besides, the “Ca2+ uptake” value in series [7] is on record as “did not prevent”.
